In brackets after ≈: the same amount, converted by molar mass.

The test system of assay [1] is RPMI-7272 human melanoma cells. As to the kind of experiment: In vitro RPMI-7272 human melanoma cell growth inhibition. Type of assay: cell-based. The settings on record: RPMI-7272 melanoma, inhibition of cell doublings by 50%, 72 h, read-out: ID50 (the source's name). As for the experimental part:
The compounds of this invention were also tested for their ability to inhibit the growth of human melanoma RPMI-7272 cells in vitro. Human melanoma RPMI-7272 cells (Quinn et al. [J. Natl. Cancer Inst. 59, 301-305 (1977)]) were propagated in RPMI-1640 medium supplemented with 10 mM Tricine (pH 7.8), 10 mM HEPES (pH 7.3), 0.075% sodium bicarbonate, and 10% (vol/vol) heat-inactivated (56° C., 30 minutes) fetal bovine serum in a 95% air:5% CO2 humidified atmosphere. Cells were seeded at 3×10^5 per 35 mm plate to initiate growth inhibition studies. Cultures to receive growth medium only (control cultures) were set up in quadruplicate; cultures to receive varying concentrations of compounds were set up at one dish per dose of compound. Twenty-four hours post-seeding, duplicate control cell cultures were trypsinized and cells were counted using a Coulter Counter (day 1 control counts). At this time, varying concentrations of test compounds, from 100 to 0.00001 μg/mL were added to cultures and growth medium only was added to control cultures. Seventy-two hours after the addition of compound, cells were trypsinized and counted. The numbers of cell population doublings (day 4) in the presence or absence of compound were calculated. The ID50 represents the dose of compound (in μg/mL) required to inhibit the number of cell doublings by 50%. A compound is considered to have in vitro activity against RPMI-7272 melanoma if it has an ID50 ≤1 μg/mL. The number of population doublings of control cultures during 72 hours was between 3 and 4. […] Dilutions to 1 mg/mL in complete growth medium were made, followed by stock preparations of 100 and 30 μg/mL in complete growth medium. Serial ten-fold dilutions in complete medium were formulated from the 100 and 30 μ g/mL stocks, respectively, and added to cultures.

Assay [2] relates to B16 murine melanoma. As to the kind of experiment: B16 murine melanoma test (survival of tumor-bearing mice). The settings on record: i.p. once daily for nine days from day 1. Type of assay: in vivo, mouse. The procedure: The B16 tumor line arose spontaneously in 1954 on the skin at the base of the ear of a C57BL mouse. The tumor line is maintained by serial passage in female C57BL mice. On day 0, female B6C3F1 mice are inoculated intraperitoneally with 0.5 mL of a 10% tumor brei. This brei is prepared by homogenizing fresh B16 tumors, grown subcutaneously in C57BL mice, in cold physiological saline. Mice are randomized in groups of ten each, with 20 animals being in the control group. The test compounds and vehicle control are administered intraperitoneally once daily for nine consecutive days beginning on day 1. A ≥20% decrease in body weight on day 5 is considered an indication of toxicity. The acceptable mean control survival time is 14-22 days. Results are expressed as a percentage of the mean survival time of the vehicle-treated control group according to the formula: [formula] Mice which survive 90 days are considered cured and are not included in the calculation of the mean survival time. The NCI criteria for activity are used. A compound is considered to have moderate activity against B16 melanoma if it has a % T/C ≥125%, and it is considered to have good activity if it has a % T/C ≥150%.

In assay [3] the test system is L1210 murine leukemia. Nature of the assay: L1210 murine leukemia test (survival of tumor-bearing mice). The settings on record: i.p. once daily for nine days from day 1. In kind it is in vivo, mouse. The procedure:
The L1210 tumor line originated in 1948 as a lymphocytic leukemia in a female DBA/2 mouse after the skin was treated with 0.2% 20-methylcholanthrene in ethyl ether. The tumor line is maintained by serial passage in female DBA/2 mice. On day 0, female CDF1 mice weighing 18-22 g are inoculated with 1×10^5 L1210 leukemia cells harvested from the ascites of DBA/2 mice. The mice are randomized into groups of six each and the test compounds and vehicle control are administered intraperitoneally once daily for nine consecutive days beginning on day 1. A ≥20% decrease in body weight on day 5 is considered an indication of toxicity. The acceptable control mean survival time is 8-11 days. Results are expressed as a percentage of the mean survival time of the vehicle-treated control group according to the formula: [formula] Mice which survive for 30 days are considered cured and are not included in the calculation of the mean survival time. The NCI criteria for activity are used. A compound is considered to have moderate activity against L1210 leukemia if it has a % T/C ≥125%, and it is considered to have good activity if it has a % T/C ≥150%.

Assay [4] relates to P388 murine leukemia. As to the kind of experiment: P388 murine leukemia test (survival of tumor-bearing mice). To be noted: i.p. once daily for nine days from day 1. Type of assay: in vivo, mouse. As for the experimental part:
The P388 tumor line originated in 1955 as a lymphocytic leukemia in a female DBA/2 mouse after the skin was painted with 3-methylcholanthrene. The tumor line is maintained by serial passage in female DBA/2 mice. On day 0, female CDF1 mice weighing 18-22 g are inoculated intraperitoneally with 1×10^6 P388 leukemia cells harvested from the ascites of DBA/2 mice. The mice are randomized into groups of six each and the test compounds and vehicle control are administered intraperitoneally once daily for nine consecutive days beginning day 1. A decrease in body weight on day 5 that is ≥20% is considered an indication of toxicity. The acceptable control mean survival time is 9-14 days. Results are expressed as a percentage of the mean survival time of the vehicle-treated control group according to the formula: [formula] Mice which survive for 30 days are considered cured and are not included in the calculation of the mean survival time. The NCI criteria for activity are used. A compound is considered to have moderate activity against P388 leukemia if it has a % T/C ≥125%, and it is considered to have good activity if it has a % T/C ≥150%.

Assay [5] has as its system LOX human amelanotic melanoma. As to the kind of experiment: LOX human amelanotic melanoma xenograft test in athymic nude mice. Type of assay: in vivo. To be noted: for % T/C (median survival time vs vehicle control): i.p. every fourth day, three injections. An excerpt: The LOX human amelanotic melanoma tumor line was obtained from Dr. Oystein Fodstad, Department of Biochemistry, Norwegian Radium Hospital, Oslo, Norway. The line is maintained by serial passage in athymic NCR-NU mice. On day 0, athymic nude mice, all of one sex weighing a minimum of 18 g for males and 17 g for females, are inoculated intraperitoneally with 1×10^6 LOX melanoma cells harvested from the ascites of athymic mice. The mice are randomized into groups of six each and the test compounds and vehicle control are administered intraperitoneally every fourth day beginning day 1 for a total of three injections. Animals are evaluated for toxicity on day 10. A decrease in body weight ≥20% is considered an indication of toxicity. The acceptable control median survival time is 17-24 days. Results are expressed as a percentage of the median survival time of the vehicle-treated control group according to the formula: [formula]
The NCI criteria for activity are used. A compound is considered to have moderate activity against LOX melanoma if it has a % T/C ≥140%, and it is considered to have good activity if it has a % T/C ≥200%.

With `Nc1nc(-c2cccc3ccccc23)cc2ccccc12` [Example 16], in assay [1], the IC50 is 0.22 µg/mL (≈ 0.814 µM). Turning to `Nc1nc(-c2cccc3ccccc23)cc2ccc(Cl)cc12` [Example 21, 7-Chloro-3-(1-naphthalenyl)-1-isoquinolineamine], the IC50 in assay [1] is 0.0094 µg/mL (≈ 0.0308 µM). In addition, the “% T/C (mean survival time vs vehicle control)” value in assay [2] (dose 100 mg/kg) came to 138%. Regarding `Cc1ccc2cc(-c3cccc4ccccc34)nc(N(C)CCN(C)C)c2c1` [Example 40, N,N,N'-Trimethyl-N'-(7-methyl-3-(1-naphthalenyl)-1-isoquinolinyl)-1,2-ethanediamine], the “% T/C (mean survival time vs vehicle control)” value in assay [2] (dose 0.75 mg/kg) amounted to 135%.

Turning to `Cc1ccc2cc(-c3cccc4ccccc34)nc(N)c2c1` [Example 22], the IC50 in assay [1] came to 0.0016 µg/mL (≈ 0.00563 µM). Turning to `Cc1cccc2cc(-c3cccc4ccccc34)[nH]c(=O)c12` [Example 15], the IC50 in assay [1] came to 0.53 µg/mL (≈ 1.86 µM). In the case of `O=c1[nH]c(-c2cccc3ccccc23)cc2ccccc12` [Example 1, 3-(1-Naphthalenyl)-1(2H)-isoquinolinone], the “% T/C (mean survival time vs vehicle control)” value in assay [3] (dose 100 mg/kg) was determined as 148%. Besides, the “% T/C (mean survival time vs vehicle control)” value in assay [4] (dose 200 mg/kg) is on record as 161%. For the same compound, in assay [5] (dose 400 mg/kg), the “Cures (number of survivors/total at 60 days)” value was 1/6 and the “% T/C (median survival time vs vehicle control)” value is on record as 168%. In the case of `Cc1ccc2cc(-c3cccc4ccccc34)nc(N3CCN(C)CC3)c2c1` [Example 31, 7-Methyl-1-(4-methyl-1-piperazinyl)-3-(1-naphthalenyl)-isoquinoline], in assay [2] (dose 6 mg/kg), the “% T/C (mean survival time vs vehicle control)” value is 133%. For the compound `Cc1cccc2c(=O)[nH]c(-c3cccc4ccccc34)cc12` [Example 7], in assay [1], the IC50 stood at 0.29 µg/mL (≈ 1.02 µM).

Regarding `Nc1nc(-c2cccc3ccccc23)cc2cccc(Cl)c12` [Example 23], the IC50 in assay [1] came out at 0.07 µg/mL (≈ 0.23 µM). Take `Cc1ccc2c(=O)[nH]c(-c3cccc4ccccc34)cc2c1` [Example 9]: the IC50 in assay [1] stood at 0.0016 µg/mL (≈ 0.00561 µM). `O=c1[nH]c(-c2cccc3ccccc23)cc2ccc(Cl)cc12` [Example 2, 7-chloro-3-(1-naphthalenyl)-1(2H)-isoquinolinone]: the “% T/C (mean survival time vs vehicle control)” value in assay [4] (dose 100 mg/kg) came to 138%. Moreover, the IC50 in assay [1] was 0.005 µg/mL (≈ 0.0164 µM). For `Cc1cccc2c(N)nc(-c3cccc4ccccc34)cc12` [Example 18], the IC50 in assay [1] turned out to be 0.95 µg/mL (≈ 3.34 µM). In the case of `CN(C)c1ccc2cc(-c3cccc4ccccc34)[nH]c(=O)c2c1.Cl` [Example 4, 7-(Dimethylamino)-3-(1-naphthalenyl)-1(2H)-isoquinolinone hydrochloride], the “% T/C (mean survival time vs vehicle control)” value in assay [3] (dose 6 mg/kg) is listed as 156%. Besides, in assay [1], the IC50 was determined as 0.001 µg/mL. In the case of `C[N+](C)(C)c1ccc2cc(-c3cccc4ccccc34)[nH]c(=O)c2c1` [Example 5], in assay [1], the IC50 was 0.055 µg/mL. On to `Cc1ccc2c(N)nc(-c3cccc4ccccc34)cc2c1` [Example 20, 6-Methyl-3-(1-naphthalenyl)-1-isoquinolineamine], for which the IC50 in assay [1] is 0.00077 µg/mL (≈ 0.00271 µM). The “% T/C (mean survival time vs vehicle control)” value in assay [2] (dose 6 mg/kg) stood at 130%. `Cc1cccc2cc(-c3cccc4ccccc34)nc(N)c12` [Example 24]: the IC50 in assay [1] was found to be 0.05 µg/mL (≈ 0.176 µM). For `Cc1ccc2cc(-c3cccc4ccccc34)[nH]c(=O)c2c1` [Example 3, 7-Methyl-3-(1-naphthalenyl)-1(2H)-isoquinolinone], the entries for the “% T/C (mean survival time vs vehicle control)” value in assay [3] (dose 200 mg/kg), in assay [4] (dose 100 mg/kg) and in assay [2] (dose 100 mg/kg) were 133%, 152% and 149%, respectively. In addition, the IC50 in assay [1] was determined as 0.0072 µg/mL (≈ 0.0252 µM). Further, in assay [5] (dose 240 mg/kg), the “Cures (number of survivors/total at 60 days)” value is recorded as 2/6. Moreover, the “% T/C (median survival time vs vehicle control)” value in assay [5] (dose 240 mg/kg) came to 271%.

Take `Nc1nc(-c2cccc3ccccc23)cc2cc(Cl)ccc12` [Example 19]: the IC50 in assay [1] came out at 0.055 µg/mL (≈ 0.18 µM).

These data come from US4942163A, “1(2H)-isoquinolinones and 1-isoquinolineamines as cancer chemotherapeutic agents” (E. I. Du Pont de Nemours and Company, priority 1989, dated 1990).
